From PubChem BioAssay AID2060623 (Molecular Pharmacology Branch, DTP, NCI, 2025)

System: 227483-062-R1-J1-PDC complex spheroids with HUVEC/MSC, viability
Assay: Anticancer human tumor 227483-062-R1-J1-PDC patient-derived pancreatic carcinoma cell line growth inhibition [CLK]
Details: for IC50: curve of first compound; for viability, T/C: stronger effect = lower value
Summary of the method: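 Patient-derived tumor cells grown as complex spheroids with HUVEC endothelial cells and mesenchymal stem cells, treated with drug combinations. Concentrations descend in half-log steps from near clinical Cmax, or from 10 microM if Cmax unknown.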

[1] = second compound 0.0316 µM, first compound 0.0316 µM
[2] = second compound 0.0316 µM, first compound 0.1 µM
[3] = second compound 0.0316 µM, first compound 0.316 µM
[4] = second compound 0.0316 µM, first compound 1 µM
[5] = second compound 0.0316 µM, first compound 3.16 µM
[6] = second compound 0.0316 µM, first compound 10 µM
[7] = second compound 0.1 µM, first compound 0.0316 µM
[8] = second compound 0.1 µM, first compound 0.1 µM
[9] = second compound 0.1 µM, first compound 0.316 µM
[10] = second compound 0.1 µM, first compound 1 µM
[11] = second compound 0.1 µM, first compound 3.16 µM
[12] = second compound 0.1 µM, first compound 10 µM
[13] = second compound 0.316 µM, first compound 0.0316 µM
[14] = second compound 0.316 µM, first compound 0.1 µM
[15] = second compound 0.316 µM, first compound 0.316 µM
[16] = second compound 0.316 µM, first compound 1 µM
[17] = second compound 0.316 µM, first compound 3.16 µM
[18] = second compound 0.316 µM, first compound 10 µM
[19] = second compound 1 µM, first compound 0.0316 µM
[20] = second compound 1 µM, first compound 0.1 µM
[21] = second compound 1 µM, first compound 0.316 µM
[22] = second compound 1 µM, first compound 1 µM
[23] = second compound 1 µM, first compound 3.16 µM
[24] = second compound 1 µM, first compound 10 µM
[25] = second compound 3.16 µM, first compound 0.0316 µM
[26] = second compound 3.16 µM, first compound 0.1 µM
[27] = second compound 3.16 µM, first compound 0.316 µM
[28] = second compound 3.16 µM, first compound 1 µM
[29] = second compound 3.16 µM, first compound 3.16 µM
[30] = second compound 3.16 µM, first compound 10 µM
[31] = second compound 10 µM, first compound 0.0316 µM
[32] = second compound 10 µM, first compound 0.1 µM
[33] = second compound 10 µM, first compound 0.316 µM
[34] = second compound 10 µM, first compound 1 µM
[35] = second compound 10 µM, first compound 3.16 µM
[36] = second compound 10 µM, first compound 10 µM
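Also: spheroids exposed to compounds for seven days before readout.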
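For viability, T/C in this document: percent of DMSO vehicle control luminescence as 100% viability.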

SMILES: CC1(C)CCC(CN2CCN(c3ccc(C(=O)NS(=O)(=O)c4ccc(NCC5CCOCC5)c([N+](=O)[O-])c4)c(Oc4cnc5[nH]ccc5c4)c3)CC2)=C(c2ccc(Cl)cc2)C1 + CN1CCN(c2cc(C(=O)Nc3cc4cc(-c5cnn(C)c5)ccc4cn3)ccn2)CC1
- IC50 (second compound 0.0316 µM): 5670 nM
- IC50 (second compound 0.1 µM): 4230 nM
- IC50 (second compound 0.316 µM): < 31.6 nM
- IC50 (second compound 1 µM): < 31.6 nM
- IC50 (second compound 3.16 µM): < 31.6 nM
- IC50 (second compound 10 µM): < 31.6 nM
- viability, T/C [1]: 93.9%
- viability, T/C [2]: 96.5%
- viability, T/C [3]: 110%
- viability, T/C [4]: 110%
- viability, T/C [5]: 89.8%
- viability, T/C [6]: 11.5%
- viability, T/C [7]: 58%
- viability, T/C [8]: 58.1%
- viability, T/C [9]: 63.1%
- viability, T/C [10]: 62.7%
- viability, T/C [11]: 81.3%
- viability, T/C [12]: 6.59%
- viability, T/C [13]: 5.04%
- viability, T/C [14]: 6.53%
- viability, T/C [15]: 5.51%
- viability, T/C [16]: 5.88%
- viability, T/C [17]: 6.54%
- viability, T/C [18]: 1.59%
- viability, T/C [19]: 2.1%
- viability, T/C [20]: 2.74%
- viability, T/C [21]: 2.88%
- viability, T/C [22]: 2.08%
- viability, T/C [23]: 1.44%
- viability, T/C [24]: 0.36%
- viability, T/C [25]: 3.39%
- viability, T/C [26]: 4.13%
- viability, T/C [27]: 2.75%
- viability, T/C [28]: 2.22%
- viability, T/C [29]: 2.43%
- viability, T/C [30]: 2.73%
- viability, T/C [31]: 2.85%
- viability, T/C [32]: 2.4%
- viability, T/C [33]: 1.5%
- viability, T/C [34]: 4.14%
- viability, T/C [35]: 1.34%
- viability, T/C [36]: 0.39%

SMILES: CC1COCCN1c1cc(C2(S(C)(=N)=O)CC2)nc(-c2ccnc3[nH]ccc23)n1 (stereo unspecified) + CN1CCN(c2cc(C(=O)Nc3cc4cc(-c5cnn(C)c5)ccc4cn3)ccn2)CC1
- IC50 (second compound 0.0316 µM): 8890 nM
- IC50 (second compound 0.1 µM): 1120 nM
- IC50 (second compound 0.316 µM): < 31.6 nM
- IC50 (second compound 1 µM): < 31.6 nM
- IC50 (second compound 3.16 µM): < 31.6 nM
- IC50 (second compound 10 µM): < 31.6 nM
- viability, T/C [1]: 82.8%
- viability, T/C [2]: 98.1%
- viability, T/C [3]: 93.7%
- viability, T/C [4]: 84.6%
- viability, T/C [5]: 85.3%
- viability, T/C [6]: 45.8%
- viability, T/C [7]: 60.5%
- viability, T/C [8]: 74.2%
- viability, T/C [9]: 60.2%
- viability, T/C [10]: 51.9%
- viability, T/C [11]: 33.3%
- viability, T/C [12]: 21.7%
- viability, T/C [13]: 6.08%
- viability, T/C [14]: 4.49%
- viability, T/C [15]: 4.56%
- viability, T/C [16]: 4.4%
- viability, T/C [17]: 6.8%
- viability, T/C [18]: 2.88%
- viability, T/C [19]: 1.88%
- viability, T/C [20]: 2.55%
- viability, T/C [21]: 1.66%
- viability, T/C [22]: 3.91%
- viability, T/C [23]: 2.05%
- viability, T/C [24]: 1.59%
- viability, T/C [25]: 4.44%
- viability, T/C [26]: 3.71%
- viability, T/C [27]: 4.61%
- viability, T/C [28]: 3.67%
- viability, T/C [29]: 2.93%
- viability, T/C [30]: 2.93%
- viability, T/C [31]: 3.62%
- viability, T/C [32]: 2.17%
- viability, T/C [33]: 2.15%
- viability, T/C [34]: 1.98%
- viability, T/C [35]: 2.16%
- viability, T/C [36]: 3.07%

SMILES: NC(=O)C(=Cn1cnc(-c2cc(C(F)(F)F)cc(C(F)(F)F)c2)n1)c1cncnc1 + CN1CCN(c2cc(C(=O)Nc3cc4cc(-c5cnn(C)c5)ccc4cn3)ccn2)CC1
- IC50 (second compound 0.0316 µM): 387 nM
- IC50 (second compound 0.1 µM): 62.1 nM
- IC50 (second compound 0.316 µM): < 9.49 nM
- IC50 (second compound 1 µM): < 9.49 nM
- IC50 (second compound 3.16 µM): < 9.49 nM
- IC50 (second compound 10 µM): < 9.49 nM
- viability, T/C (second compound 0.0316 µM, first compound 0.00949 µM): 83.4%
- viability, T/C (second compound 0.0316 µM, first compound 0.03 µM): 105%
- viability, T/C (second compound 0.0316 µM, first compound 0.0949 µM): 78.6%
- viability, T/C (second compound 0.0316 µM, first compound 0.3 µM): 60.6%
- viability, T/C (second compound 0.0316 µM, first compound 0.949 µM): 18.8%
- viability, T/C (second compound 0.0316 µM, first compound 3 µM): 5.44%
- viability, T/C (second compound 0.1 µM, first compound 0.00949 µM): 69.7%
- viability, T/C (second compound 0.1 µM, first compound 0.03 µM): 76.6%
- viability, T/C (second compound 0.1 µM, first compound 0.0949 µM): 35.9%
- viability, T/C (second compound 0.1 µM, first compound 0.3 µM): 13.9%
- viability, T/C (second compound 0.1 µM, first compound 0.949 µM): 3.19%
- viability, T/C (second compound 0.1 µM, first compound 3 µM): 1.66%
- viability, T/C (second compound 0.316 µM, first compound 0.00949 µM): 3.14%
- viability, T/C (second compound 0.316 µM, first compound 0.03 µM): 3.15%
- viability, T/C (second compound 0.316 µM, first compound 0.0949 µM): 1.63%
- viability, T/C (second compound 0.316 µM, first compound 0.3 µM): 1.68%
- viability, T/C (second compound 0.316 µM, first compound 0.949 µM): 1.4%
- viability, T/C (second compound 0.316 µM, first compound 3 µM): 1.39%
- viability, T/C (second compound 1 µM, first compound 0.00949 µM): 1.5%
- viability, T/C (second compound 1 µM, first compound 0.03 µM): 1.97%
- viability, T/C (second compound 1 µM, first compound 0.0949 µM): 1.83%
- viability, T/C (second compound 1 µM, first compound 0.3 µM): 2.32%
- viability, T/C (second compound 1 µM, first compound 0.949 µM): 2.43%
- viability, T/C (second compound 1 µM, first compound 3 µM): 2.17%
- viability, T/C (second compound 3.16 µM, first compound 0.00949 µM): 1.89%
- viability, T/C (second compound 3.16 µM, first compound 0.03 µM): 3.42%
- viability, T/C (second compound 3.16 µM, first compound 0.0949 µM): 3.73%
- viability, T/C (second compound 3.16 µM, first compound 0.3 µM): 5.05%
- viability, T/C (second compound 3.16 µM, first compound 0.949 µM): 3.43%
- viability, T/C (second compound 3.16 µM, first compound 3 µM): 3.12%
- viability, T/C (second compound 10 µM, first compound 0.00949 µM): 1.57%
- viability, T/C (second compound 10 µM, first compound 0.03 µM): 2.14%
- viability, T/C (second compound 10 µM, first compound 0.0949 µM): 2.32%
- viability, T/C (second compound 10 µM, first compound 0.3 µM): 2.15%
- viability, T/C (second compound 10 µM, first compound 0.949 µM): 1.97%
- viability, T/C (second compound 10 µM, first compound 3 µM): 1.44%
